How the values were obtained:
fibronectin assembly = system: fibronectin assembly; design: method as in PMID 26133787, PMID 17099729; details: cited from earlier work
[1] = molecular target: T1, TG2-fibronectin (FN42) interaction (Homo sapiens, UniProt P21980); assay: TG2 interaction with fibronectin (FN42) ELISA; type: binding; details: 5 and 15 μM, with or without 1 mM CaCl2, Fig 2E, 2F
T1 construct: purchased Zedira
T1 sequence (P21980 1-687): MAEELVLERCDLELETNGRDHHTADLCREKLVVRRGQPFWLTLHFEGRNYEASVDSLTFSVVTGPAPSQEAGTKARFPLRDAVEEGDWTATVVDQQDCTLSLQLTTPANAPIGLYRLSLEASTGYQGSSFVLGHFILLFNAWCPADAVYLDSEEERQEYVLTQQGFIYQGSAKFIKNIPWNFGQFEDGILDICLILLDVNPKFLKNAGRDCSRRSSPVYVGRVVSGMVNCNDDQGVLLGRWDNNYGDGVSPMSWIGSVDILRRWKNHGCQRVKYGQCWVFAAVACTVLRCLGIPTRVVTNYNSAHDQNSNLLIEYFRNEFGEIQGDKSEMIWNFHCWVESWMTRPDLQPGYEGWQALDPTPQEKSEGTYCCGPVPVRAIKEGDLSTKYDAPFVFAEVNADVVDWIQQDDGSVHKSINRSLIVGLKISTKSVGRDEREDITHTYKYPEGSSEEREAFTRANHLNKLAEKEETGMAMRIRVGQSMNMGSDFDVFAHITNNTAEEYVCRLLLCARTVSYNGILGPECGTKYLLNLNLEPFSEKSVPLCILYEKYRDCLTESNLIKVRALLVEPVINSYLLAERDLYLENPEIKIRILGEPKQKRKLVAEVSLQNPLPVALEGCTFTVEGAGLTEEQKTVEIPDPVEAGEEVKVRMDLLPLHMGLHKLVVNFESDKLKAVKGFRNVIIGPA
Experimental: To determine the potential effect of BJJF078 and ERW1041E on the interaction of TG2 with fibronectin, ELISA experiments were performed as described previously. Briefly, 96 well ELISA plates (Nunc, Maxisorp) were coated with 100 μg/ml mouse anti his-tag monoclonal antibody (Roche) in PBS at 4°C overnight. This was followed by simultaneous washing and blocking with 0.5% BSA in PBS (3x 10 min). Per well 50 μl of a 10 nM human recombinant TG2 (his-tagged, Zedira) solution in PBS was added. Into each well (triplicates) either DMSO (control, 1% final concentration) or TG2 inhibitors (BJJF078, ERW1041E, final concentration 5 and 15 μM in 1% DMSO) were added. As a positive control similar concentrations of TG53, a small molecule that inhibits the interaction between TG2 and fibronectin was added (kindly provided by Prof D. Matei, Northwestern University, Chicago, USA). […] After 1 h incubation at RT, 50 μl of 10 nM FN42-biotin solution (kindly provided by Prof D. Matei) was added to the wells. After an additional 1 h incubation at RT and washing steps (3x 10 min) with 0.5% BSA in PBS, 100 μl streptavidin-HRPO conjugate (from kit opr001, Covalab) was added and incubated for 1 h at RT. This was followed by another series of washes and the colour reaction started with 100 μl of 3,3′,5,5′ tetramethylbenzidine substrate (TMB, from kit opr001, Covalab). After sufficient colour development (15 min), the reaction was stopped with 1M HCl and absorbance was measured at 450 nm.

| effect on binding of TG2 to fibronectin (FN42) [1] | SMILES | effect on fibronectin assembly (fibronectin assembly) |
| --- | --- | --- |
|  | O=C(N[C@@H](Cc1ccc(O)cc1)C(=O)NCC1CC(Br)=NO1)OCc1ccccc1 (some centres unmarked) [KCC009] | can interfere with fibronectin assembly |
| dose-dependent reduction | COc1ccc(Cl)cc1C(=O)Nc1ccc(Nc2nc(C)cc(N(C)C)n2)cc1 [TG53] |  |
